The target in one assay is T1, serotonin transporter (Rattus norvegicus, UniProt P31652).
T1 construct: frontal cortical membranes prepared from male Sprague-Dawley rats; from tissue; host or cells: rat frontal cortex membranes
In words: serotonin transporter affinity, 3H-paroxetine binding to frontal cortical membranes. Details: species or system male Sprague-Dawley rats. To be noted: 3H-paroxetine 0.1 nM, rat frontal cortical membranes; read-out: ST (Ki). As for the experimental part: Briefly, frontal cortical membranes prepared from male Sprague-Dawley rats were incubated with ^3H-paroxetine (0.1 nM) for 60 min at 25°C. All tubes also contained either vehicle, test compound (one to eight concentrations), or a saturating concentration of fluoxetine (10 µM) to define specific binding. All reactions are terminated by the addition of ice cold Tris buffer followed by rapid filtration using a Tom Tech filtration device to separate bound from free ^3H-paroxetine.

The target of assay [1] is T2, human 5-HT1A receptor subtype (Homo sapiens, UniProt P08908).
T2 construct: expressed in transfected cells
T2 sequence (P08908 1-422): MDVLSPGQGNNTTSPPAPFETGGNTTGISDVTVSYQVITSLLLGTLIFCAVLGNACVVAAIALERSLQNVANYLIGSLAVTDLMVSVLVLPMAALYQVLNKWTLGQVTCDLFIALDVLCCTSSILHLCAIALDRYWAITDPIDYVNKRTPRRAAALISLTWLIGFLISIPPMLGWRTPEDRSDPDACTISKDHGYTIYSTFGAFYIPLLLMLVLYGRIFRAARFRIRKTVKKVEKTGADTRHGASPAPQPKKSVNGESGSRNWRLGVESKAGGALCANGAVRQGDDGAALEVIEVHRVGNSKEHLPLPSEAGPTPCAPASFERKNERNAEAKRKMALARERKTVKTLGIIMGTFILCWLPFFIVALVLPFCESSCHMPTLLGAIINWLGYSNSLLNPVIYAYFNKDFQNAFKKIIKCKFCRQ
In words: 5-HT1A receptor binding assay with [3H]8-OH-DPAT on membranes of 5-HT1A.CHO cells. To be noted: for pKi: [3H]8-OH-DPAT 1.5 nM, CHO cell membranes. On the procedure: The PCR cloning of the human 5-HT1A receptor subtype from a human genomic library has been described previously Chanda et al., Mol. Pharmacol., 43:516 (1993). A stable Chinese hamster ovary cell line expressing the human 5-HT1A receptor subtype (5-HT1A.CHO cells) was employed throughout this study. Cells were maintained in DMEM supplemented with 10% foetal calf serum, non-essential amino acids and penicillin/ streptomycin.
Cells were grown to 95-100% confluency as a monolayer before membranes were harvested for binding studies. Cells were gently scraped from the culture plates, transferred to centrifuge tubes, and washed twice by centrifugation (2000 rpm for 10 min., 4°C) in buffer (50 mM Tris; pH 7.5). The resulting pellets were aliquoted and placed at -80°C. On the day of assay, the cells were thawed on ice, and resuspended in buffer. Studies were conducted using [^3H]8-OH-DPAT as the radioligand. The binding assay was performed in 96 well microtiter plates in a final total volume of 250 µL of buffer. Competition experiments were performed by using 7 concentrations of unlabelled drug and a final ligand concentration of 1.5 nM . Non-specific binding was determined in the presence of 10 µM 5HT. Saturation analysis was conducted by using [^3H]8-OH-DPAT at concentrations ranging from 0.3-30 nM. Following a 30 minute incubation at room temperature, the reaction was terminated by the addition of ice cold buffer and rapid filtration using a M-96 Brandel Cell Harvester (Gaithersburg, MD) through a GF/B filter presoaked for 30 minutes in 0.5% polyethyleneimine.

pKi: −log10 of the molar value.

T1 sequence (P31652 whole entry): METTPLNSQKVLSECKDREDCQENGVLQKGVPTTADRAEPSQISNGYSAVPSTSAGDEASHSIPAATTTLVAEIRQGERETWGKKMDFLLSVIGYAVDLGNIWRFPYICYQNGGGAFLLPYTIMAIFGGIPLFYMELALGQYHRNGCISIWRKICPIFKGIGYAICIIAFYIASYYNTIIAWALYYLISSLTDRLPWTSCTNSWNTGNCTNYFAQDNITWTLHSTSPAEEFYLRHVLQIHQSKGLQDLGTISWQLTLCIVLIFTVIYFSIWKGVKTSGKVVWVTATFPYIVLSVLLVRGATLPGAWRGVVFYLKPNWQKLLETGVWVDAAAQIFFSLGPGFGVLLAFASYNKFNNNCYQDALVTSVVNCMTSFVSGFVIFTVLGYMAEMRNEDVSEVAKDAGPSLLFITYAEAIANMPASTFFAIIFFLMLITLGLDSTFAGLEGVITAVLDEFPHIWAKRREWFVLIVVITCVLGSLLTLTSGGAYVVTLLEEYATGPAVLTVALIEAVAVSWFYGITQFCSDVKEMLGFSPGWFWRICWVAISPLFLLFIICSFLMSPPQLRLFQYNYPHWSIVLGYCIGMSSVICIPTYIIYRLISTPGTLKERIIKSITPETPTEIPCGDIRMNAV

What is called pKi is the negative decadic logarithm of the Ki, by convention in mol/L. In the case of `Cn1cc([C@H]2CC[C@@H](NCCOc3cc(F)cc4c3OCCC4)CC2)c2cc(C#N)ccc21` [Example 5c, 3-{(1,4-cis)-4-[2-(6-Fluoro-chroman-8-yloxy)-ethylamino]-cyclohexyl}-1-methyl-1H-indole-5-carbonitrile], at serotonin transporter, the pKi is 9.28. Further, in assay [1] (given instead of a Ki), the “5-HT1A (% @1000nM)” value was 47%@1000nM.

In assay [1], `Fc1cc(OCCN[C@H]2CC[C@@H](c3c[nH]c4ccc(F)cc43)CC2)c2occc2c1` [Example 7a, [2-(5-Fluoro-benzofuran-7-yloxy)-ethyl]-[(1,4-cis)-4-(5-fluoro-1H -indol-3-yl)-cyclohexyl]-amine] had a pKi of 6.84. In the case of `COc1ccc(F)cc1OCCN[C@H]1CC[C@@H](c2c[nH]c3cc(F)ccc32)CC1` [Example 2a, [(1,4-cis)-4-(6-Fluoro-1H-indol-3-yl)-cyclohexyl]-[2-(5-fluoro-2-methoxy-phenoxy)-ethyl]-amine], the pKi at serotonin transporter was 8.92; in assay [1], 6.00.

Regarding `COc1ccccc1OCCN[C@H]1CC[C@@H](c2c[nH]c3ccc(F)cc32)CC1` [Example 1a, [(cis)-4-(5-Fluoro-1H-indol-3-yl)-cyclohexyl]-[2-(2-methoxy-phenoxy)-ethyl]-amine], in assay [1], the pKi is 6.51.

With `N#Cc1ccc2[nH]cc([C@H]3CC[C@H](NCCOc4cc(F)cc5c4OCC5)CC3)c2c1` [Example 6b], the negative-log Ki (pKi) at serotonin transporter was 8.82; in assay [1] it was 7.63.

On to `N#Cc1ccc2[nH]cc([C@H]3CC[C@@H](NCCOc4cc(F)cc5c4OCC5)CC3)c2c1` [Example 6a], for which the pKi at serotonin transporter is 8.97. Besides, the “5-HT1A (% @1000nM)” value in assay [1] (given instead of a Ki) was 49%@1000nM. On to `COc1ccccc1OCCN[C@H]1CC[C@H](c2c[nH]c3ccc(F)cc32)CC1` [Example 1b, [(trans)-4-(5-Fluoro-1H-indol-3-yl)-cyclohexyl]-[2-(2-methoxy-phenoxy)-ethyl]-amine], for which, in assay [1], the pKi was 7.65. With `Fc1ccc2c(c1)[nH]cc2[C@H]1CC[C@@H](NCCOc2cccc3c2OCCO3)CC1` [Example 4c], the figures for the negative logarithm of the Ki (pKi) (on serotonin transporter; in assay [1]) were 8.20 and 6.45, respectively. In the same order, the values of `Fc1ccc2[nH]cc([C@H]3CC[C@@H](NCCOc4cccc5c4OCCO5)CC3)c2c1` [Example 4a] are 7.74 and 6.31. As for `N#Cc1ccc2[nH]cc([C@H]3CC[C@@H](NCCOc4cc(F)cc5c4OCCC5)CC3)c2c1` [Example 5e, 3-{(1,4-cis)-4-[2-(6-Fluoro-chroman-8-yloxy)-ethylamino]-cyclohexyl}-1H-indole-5-carbonitrile], the values for the pKi (on serotonin transporter; in assay [1]) were 8.56 and 6.41, respectively.

Take `COc1ccccc1OCCNCC1CCC(c2c[nH]c3ccc(C#N)cc23)CC1` (centres unmarked) [Example 10b, 3-(4-{[2-(Methoxy-phenoxy)-ethylamino]-methyl}-cyclohexyl)-1H-indole-5-carbonitrile]: at serotonin transporter, the pKi was 8.82. The “5-HT1A (% @10nM)” value in assay [1] (@10nM, given instead of a Ki) is 7%@10nM. On to `Cn1cc([C@H]2CC[C@H](NCCOc3cc(F)cc4c3OCCC4)CC2)c2cc(C#N)ccc21` [Example 5d, 3-{(1,4-cis)-4-[2-(6-Fluoro-chroman-8-yloxy)-ethylamino]-cyclohexyl}-1-methyl-1H-indole-5-carbonitrile], for which the pKi on serotonin transporter is 7.67; in assay [1] it was 7.62. Taken in the same sequence, the figures for `Fc1ccc2[nH]cc([C@H]3CC[C@@H](NCCOc4cccc5[nH]ccc45)CC3)c2c1` [Example 3a] were 7.59 and 6.83. Consider `Fc1cc2c(c(OCCN[C@H]3CC[C@@H](c4c[nH]c5ccc(F)cc54)CC3)c1)OCCC2` [Example 5a, [2-(6-Fluoro-chroman-8-yloxy)-ethyl]-[(1,4-cis)-4-(5-fluoro-1H -indol-3-yl)-cyclohexyl]-amine], for which, on serotonin transporter, the pKi is 7.89. For the same compound, in assay [1] (given instead of a Ki), the “5-HT1A (% @1000nM)” value was 49%@1000nM. For `Fc1cc(OCCN[C@H]2CC[C@H](c3c[nH]c4ccc(F)cc43)CC2)c2occc2c1` [Example 7b, [2-(5-Fluoro-benzofuran-7-yloxy)-ethyl]-[(1,4-trans)-4-(5-fluoro-1H -indol-3-yl)-cyclohexyl]-amine], the pKi in assay [1] is 7.73.

The values are drawn from patent EP1068184B1, “N-ARYLOXYETHYLAMINE DERIVATIVES FOR THE TREATMENT OF DEPRESSION” (Wyeth, priority 1998, dated 1999).
